According to PMC8617031, “Development of a BCL-xL and BCL-2 dual degrader with improved anti-leukemic activity,” (Nature Communications, 2021):
“And” between values parts separate entries of the source, which are not always exact repeats. Equal entries are not always repeated.

Legend:
[1] = tested on: BCL-2/PROTAC/VCB ternary complex (HiBit-BCL-2, HaloTag-VHL); experiment: NanoBRET intracellular ternary complex formation in 293T cells, BCL-2; format: cell-based, human; details: 293T cells, triplicate wells; for NanoBRET ratio (610/450 x1000, background-subtracted), Bcl-2, Ave: Ave of Read1 and Read2
Source text: (§1) Plasmids HaloTag-VHL (Cat. No. CS1679C155) and CMV HiBit (Cat. No. CS1956B03) were purchased from Promega. HiBit-BCL-xL and HiBit-BCL-2 were constructed previously. The two mutants (HiBit-BCL-xL-K157-only and HiBit-BCL-xL-K-ko) were constructed through Gibson assembly method. The primer pair (5′-[…]-3′ and 5′-[…]c[…]-3′) and the template Flag-BCL-xL-K157-only or Flag-BCL-xL-K-ko (pDL2129)[2] were used to clone the BCL-xL-K157-only-containing and BCL-xL-K-ko-containing fragments, respectively. The primer pair (5′-[…]g[…]-3′ and 5′-[…]-3′) and pBit3.1-N (Cat. No. N2361, Promega) were used to clone the vector-containing fragment. The PCR fragments were assembled using NEBuilder® HiFi DNA Assembly Master Mix (Cat. No. E2621, NEB, Ipswich, MA, USA). DNA sequences in all these plasmids were authenticated by automatic sequencing. […] After 24 h, 2 × 10^4 transfected cells were seeded into white 96-well tissue culture plates in Gibco™ Opti-MEM™ I Reduced Serum Medium, No Phenol Red (Cat. No. 11-058-021, Fisher) containing 4% FBS with or without HaloTag NanoBRET 618 Ligand (Cat. No. PRN1662, Promega) and incubated overnight at 37 °C, 5% CO2. The following day, serial diluted compounds were added into the medium and plates were incubated at 37 °C, 5% CO2, for 6 h. After treatment, NanoBRET Nano-Glo Substrate (cat. no. N1662, Promega) was added into the medium, and the contents were mixed by shaking the plate for 30 s before measuring donor and acceptor signals on Biotek plate reader. Dual-filtered luminescence was collected with a 450/50 nm bandpass filter (donor, NanoBiT-BCL-XL protein or NanoBiT-BCL-2 protein) and a 610-nm longpass filter (acceptor, HaloTag NanoBRET ligand) using an integration time of 0.5 s. mBRET ratios were calculated following the NanoBRET™ Nano-Glo® Detection System (Cat. No. N1662, Promega).

[2] = tested on: BCL-xL/PROTAC/VCB ternary complex (HiBit-BCL-xL, HaloTag-VHL); experiment: NanoBRET intracellular ternary complex formation in 293T cells, BCL-xL; format: cell-based, human; details: 293T cells, triplicate wells; for NanoBRET ratio (610/450 x1000, background-subtracted), Bcl-xl, Ave: Ave of Read1 and Read2
Source text: as §1

Row | SMILES | NanoBRET ratio (610/450 x1000, background-subtracted), Bcl-2, Ave ([1]; 0.333 uM) | NanoBRET ratio (610/450 x1000, background-subtracted), Bcl-2, Read1 ([1]; 0.333 uM) | NanoBRET ratio (610/450 x1000, background-subtracted), Bcl-2, Read2 ([1]; 0.333 uM) | NanoBRET ratio (610/450 x1000, background-subtracted), Bcl-2, Ave ([1]; 1 uM) | NanoBRET ratio (610/450 x1000, background-subtracted), Bcl-2, Read1 ([1]; 1 uM) | NanoBRET ratio (610/450 x1000, background-subtracted), Bcl-2, Read2 ([1]; 1 uM) | NanoBRET ratio (610/450 x1000, background-subtracted), Bcl-2, Ave ([1]; 3 uM) | NanoBRET ratio (610/450 x1000, background-subtracted), Bcl-2, Read1 ([1]; 3 uM) | NanoBRET ratio (610/450 x1000, background-subtracted), Bcl-2, Read2 ([1]; 3 uM) | NanoBRET ratio (610/450 x1000, background-subtracted), Bcl-xl, Ave ([2]; 0.333 uM) | NanoBRET ratio (610/450 x1000, background-subtracted), Bcl-xl, Read1 ([2]; 0.333 uM) | NanoBRET ratio (610/450 x1000, background-subtracted), Bcl-xl, Read2 ([2]; 0.333 uM) | NanoBRET ratio (610/450 x1000, background-subtracted), Bcl-xl, Ave ([2]; 1 uM) | NanoBRET ratio (610/450 x1000, background-subtracted), Bcl-xl, Read1 ([2]; 1 uM) | NanoBRET ratio (610/450 x1000, background-subtracted), Bcl-xl, Read2 ([2]; 1 uM) | NanoBRET ratio (610/450 x1000, background-subtracted), Bcl-xl, Ave ([2]; 3 uM) | NanoBRET ratio (610/450 x1000, background-subtracted), Bcl-xl, Read1 ([2]; 3 uM) | NanoBRET ratio (610/450 x1000, background-subtracted), Bcl-xl, Read2 ([2]; 3 uM)
1 | Cc1ncsc1-c1ccc(C(C)NC(=O)C2CC(O)CN2C(=O)C(NC(=O)CCCC(=O)N2CCN(CC3(C)CCC(c4ccc(Cl)cc4)=C(CN4CCN(c5ccc(C(=O)NS(=O)(=O)c6ccc(NC(CCN7CCOCC7)CSc7ccccc7)c(S(=O)(=O)C(F)(F)F)c6)cc5)CC4)C3)CC2)C(C)(C)C)cc1 (mixture of isomers) [319-C5] | 5.628 and 6.032 and 6.002 | 5.8735 and 6.598 and 5.9581 | 5.383 and 5.466 and 6.046 | 7.014 and 6.158 and 6.868 | 6.748 and 6.437 and 7.054 | 7.2789 and 5.879 and 6.683 | 6.77 and 7.133 and 6.868 | 6.63 and 7.268 and 6.8218 | 6.909 and 6.997 and 6.914 | 6.339 and 5.781 and 6.072 | 6.257 and 5.719 and 6.3849 | 6.422 and 5.844 and 5.759 | 5.241 and 6.025 and 7.398 | 5.522 and 5.988 and 7.452 | 4.96 and 6.062 and 7.344 | 5.367 and 5.631 and 6.141 | 5.5804 and 5.686 and 6.375 | 5.154 and 5.575 and 5.907
2 | Cc1ncsc1-c1ccc(C(C)NC(=O)C2CC(O)CN2C(=O)C(NC(=O)CCCCC(=O)N2CCN(CC3(C)CCC(c4ccc(Cl)cc4)=C(CN4CCN(c5ccc(C(=O)NS(=O)(=O)c6ccc(NC(CCN7CCOCC7)CSc7ccccc7)c(S(=O)(=O)C(F)(F)F)c6)cc5)CC4)C3)CC2)C(C)(C)C)cc1 (mixture of isomers) [319-C6] | 6.191 and 6.524 and 6.882 | 6.596 and 6.719 and 7.227 | 5.786 and 6.329 and 6.537 | 6.728 and 7.064 and 7.162 | 6.811 and 7.607 and 7.576 | 6.646 and 6.52 and 6.748 | 8.027 and 7.6 and 7.992 | 8.178 and 7.5868 and 7.751 | 7.877 and 7.613 and 8.232 | 6.174 and 6.1699 and 6.65 | 6.062 and 6.008 and 6.406 | 6.287 and 6.332 and 6.893 | 8.477 and 7.0143 and 7.515 | 8.852 and 7.285 and 8.097 | 8.103 and 6.744 and 6.934 | 8.009 and 9.063 and 8.852 | 8.381 and 8.755 and 9.483 | 7.637 and 9.371 and 8.221
